Where “and” joins values, the source holds several entries; their conditions need not be identical. Equal values may be shown once. Read-outs that look alike come from different tables or passages of the source.
Key:
MDX mice = assay: MDX mouse study: myofiber diameter after intramuscular leupeptin; assay type: in vivo; settings: for Myofiber diameter, Anterior tibialis / Myofiber diameter, Diaphragm / Myofiber diameter, Gastrocnemius / Myofiber diameter, Soleus: mdx mice, ± SD
Description: (§1) It is well documented that as, observed in DMD and BMD, dystrophin is dysfunctional/absent in the murine MDX model of muscular dystrophy. […] A series of studies to test the ability of the calpain inhibitor, leupeptin, to delay and/or prevent features of calcium-induced damage to dystrophic myofibers was initiated. Control C57BL/10SNJ mice were treated with intramuscular injections of normal saline. The MDX mice were treated intramuscularly with either normal saline or 12 mg/kg leupeptin or 18 mg/kg leupeptin twice daily. All injections were delivered in the hind-limbs in various locations to avoid muscle damage due to repeated injections at the same location. The gastrocnemius, soleus, anterior tibialis, and diaphragm muscles were examined in all animals.

calpain [1] = assay: Calpain activities of muscle samples from leupeptin-treated MDX mice; assay type: in vivo, mouse; settings: for Calpain activities of muscle samples, Anterior tibialis / Calpain activities of muscle samples, Diaphragm / Calpain activities of muscle samples, Gastrocnemius / Calpain activities of muscle samples, Soleus: mdx mice, average of 3 determinations
Description: as §1
To further examine whether the beneficial/protective action of leupeptin was associated with a change in calpain activity, the activity of the enzyme was assessed in the muscle various muscles taken from the control, and MDX […]±treatment with leupeptin.

[2] = Monkey study, intramuscular leupeptin: toxicology and echocardiograms; assay type: in vivo, Cebus apella
Description: (§2) In order to test the hypothesis that in vivo inhibition of calpains by leupeptin can facilitate neuromuscular recovery by inhibiting denervation atrophy of the skeletal-muscle target after complete peripheral nerve transection and delayed nerve repair (7), a monkey study (Cebus apella) was undertaken. This median-nerve model was chosen to approximate human anatomic and regenerative aspects.
Complete blood counts and clotting times after intramuscular leupeptin administration at 18 mg/kg, twice daily for 24 weeks, were not affected in treated animals, when compared to controls. In controls, mean values were as follows: WBC=4.83±1.04×10^3; RBC=5.34±0.34×10^6; hematocrit=37.97%±2.09; platelets=3.30±0.05×10^5; prothrombin time=9.68±0.36 sec; partial thromboplastin time=28.78±1.32 sec. In treated animals, mean values were: WBC=6.67±2.26×10^3; RBC=5.55±0.26×10^6; hematocrit=38.18%+1.69; platelets 4.33±0.18×10^5; prothrombin time=10.88±0.49 sec; partial thromboplastin time=33.06±0.76 sec.
Echocardiograms: To assure that leupeptin was causing no pathological effects on heart muscle, the cardiac lateral wall and septum were measured in millimeters in all animals prior to leupeptin treatment and 25 weeks after delayed nerve repair. Prior to treatment, in animals designated as controls, the lateral wall was 2.88±0.33 mm and the septum was 2.84±0.2 mm. Twenty-five weeks later in control animals, the lateral wall was 3.0±0.5 mm and the septum was 2.9±0.2 mm. Prior to treatment, in animals designated to receive leupeptin, the lateral wall was 3.5±0.2 mm and the septum was 2.9±0.4 mm. Twenty-five weeks later, in leupeptin-treated animals, the lateral wall was 3.2±0.1 mm and the septum was 2.8±0.3 mm. Importantly, there were no significant statistical differences within either the control or treatment groups or between the control and treatment groups (data not shown).

[3] = tested on: opponens and abductor myofibers; assay: Monkey study, intramuscular leupeptin: muscle morphology after delayed median nerve repair; assay type: in vivo, Cebus apella
Source text: as §2

Calpain [4] = assay: Monkey study, oral leupeptin: muscle calpain activities; assay type: in vivo, monkeys
Source text: However, the trend in activities, as was expected, when comparing control, left muscle to right, denervated, leupeptin-treated muscle, was an overall decrease in calpain activity after leupeptin treatment. The mean decrease in calpain activity in the right opponens pollicis muscles of leupeptin treated animals was 30%. The mean decrease in calpain activity in the right abductor pollicis muscles of leupeptin-treated animals was 24%.

Duchenne patients = assay: Preliminary safety trial of oral leupeptin in DMD children; assay type: in vivo
Description: Leupeptin's low toxicity, non-immunogenicity and stability profile have made it a potential drug for eventual human use. In this regard, a preliminary safety trial of leupeptin in seven Italian DMD children with ages varying from 7-10 was performed. The trial was approved by the Italian Ministry of Health and the leupeptin supplied by the Nippon Kayaku Co., Japan. […] During the process of muscle degeneration, muscle cells break open and their contents find their way into the bloodstream. […] CK levels can be slightly elevated (500 U/L) in some nerve disorders, or grossly elevated (5,000 to 15,000 U/L) in DMD or inflammatory myopathies. Importantly the significant decline in CK levels after treatment with leupeptin indicates a significant improvement (lessening of muscle breakdown) in these individuals, especially in the child given 100 mg twice daily.

[5] = tested on: rat hind limb muscle (sciatic nerve denervation); settings: for % loss (muscle atrophy due to denervation): rat
Description: Denervation was carried out on one of the hind limb sciatic nerves of the rat. Denervation was allowed to proceed for 7 days. Either leupeptin or CLA was injected 2×/day in forelimb muscle for seven days. The non-denervated hind limb was used as the control. Leupeptin and/or CLA were injected into alternating forelimb muscles for a period of seven days after which, animals were sacrificed, muscles excised and weighed.

[6] = 12 mg/kg leupeptin intramuscularly twice daily
[7] = 18 mg/kg leupeptin intramuscularly twice daily
[8] = leupeptin-treated monkeys, twenty-five weeks after delayed nerve repair
[9] = monkeys, intramuscular leupeptin 18 mg/kg twice daily for 24 weeks
[10] = left, unoperated hand of leupeptin treated monkeys, 24 weeks

CC(=O)N[C@@H](CC(C)C)C(=O)N[C@@H](CC(C)C)C(=O)N[C@H](C=O)CCCNC(=N)N [Leupeptin]
increase in myofiber diameter vs untreated MDX muscle (MDX mice; anterior tibialis, 12 mg/kg): 35%
increase in myofiber diameter vs untreated MDX muscle (MDX mice; anterior tibialis, 18 mg/kg): 36%
increase in myofiber diameter vs untreated MDX muscle (MDX mice; diaphragm, 12 mg/kg): 25%
increase in myofiber diameter vs untreated MDX muscle (MDX mice; diaphragm, 18 mg/kg): 25%
increase in myofiber diameter vs untreated MDX muscle (MDX mice; gastrocnemius, 12 mg/kg): 37%
increase in myofiber diameter vs untreated MDX muscle (MDX mice; gastrocnemius, 18 mg/kg): 39%
Myofiber diameter, Anterior tibialis (MDX mice; [6]): 37.5 ± 2.8 µm
Myofiber diameter, Diaphragm (MDX mice; [6]): 21.8 ± 0.9 µm
Myofiber diameter, Gastrocnemius (MDX mice; [6]): 32.9 ± 2.6 µm
Myofiber diameter, Soleus (MDX mice; [6]): 24.7 ± 1.8 µm
Myofiber diameter, Anterior tibialis (MDX mice; [7]): 38.3 ± 1.3 µm
Myofiber diameter, Diaphragm (MDX mice; [7]): 21.7 ± 1.8 µm
Myofiber diameter, Gastrocnemius (MDX mice; [7]): 34 ± 2.7 µm
Myofiber diameter, Soleus (MDX mice; [7]): 25.5 ± 2.3 µm
increase in myofiber diameter vs untreated MDX muscle (MDX mice; soleus, 12 mg/kg): 22%
increase in myofiber diameter vs untreated MDX muscle (MDX mice; soleus, 18 mg/kg): 25%
decrease in calpain activity vs untreated MDX muscles (calpain [1]; anterior tibialis, 12 mg/kg): 50%
decrease in calpain activity vs untreated MDX muscles (calpain [1]; anterior tibialis, 18 mg/kg): 77%
decrease in calpain activity vs untreated MDX muscles (calpain [1]; diaphragm, 12 mg/kg): 51%
decrease in calpain activity vs untreated MDX muscles (calpain [1]; diaphragm, 18 mg/kg): 71%
decrease in calpain activity vs untreated MDX muscles (calpain [1]; gastrocnemius, 12 mg/kg): 84%
decrease in calpain activity vs untreated MDX muscles (calpain [1]; gastrocnemius, 18 mg/kg): 60%
Calpain activities of muscle samples, Anterior tibialis (calpain [1]; 12 mg/kg leupeptin): 155 ± 16 cpm/200-μg protein
Calpain activities of muscle samples, Diaphragm (calpain [1]; 12 mg/kg leupeptin): 26 ± 4 cpm/200-μg protein
Calpain activities of muscle samples, Gastrocnemius (calpain [1]; 12 mg/kg leupeptin): 27 ± 7 cpm/200-μg protein
Calpain activities of muscle samples, Soleus (calpain [1]; 12 mg/kg leupeptin): 187 ± 16 cpm/200-μg protein
Calpain activities of muscle samples, Anterior tibialis (calpain [1]; 18 mg/kg leupeptin): 71 ± 11 cpm/200-μg protein
Calpain activities of muscle samples, Diaphragm (calpain [1]; 18 mg/kg leupeptin): 17 ± 5 cpm/200-μg protein
Calpain activities of muscle samples, Gastrocnemius (calpain [1]; 18 mg/kg leupeptin): 67 ± 8 cpm/200-μg protein
Calpain activities of muscle samples, Soleus (calpain [1]; 18 mg/kg leupeptin): 102 ± 9 cpm/200-μg protein
decrease in calpain activity vs untreated MDX muscles (calpain [1]; soleus, 12 mg/kg): 44%
decrease in calpain activity vs untreated MDX muscles (calpain [1]; soleus, 18 mg/kg): 70%
cardiac lateral wall (echocardiogram) [2, 8]: 3.2±0.1 mm
cardiac septum (echocardiogram) [2, 8]: 2.8±0.3 mm
RBC [2, 9]: 5.55±0.26×10^6
WBC [2, 9]: 6.67±2.26×10^3
blood chemistry analyses, treated vs control [2, 9]: no significant differences between treated and control animals
hematocrit [2, 9]: 38.18%
partial thromboplastin time [2, 9]: 33.06 ± 0.76 s
platelets [2, 9]: 4.33±0.18×10^5
prothrombin time [2, 9]: 10.88 ± 0.49 s
mean myofiber diameter, abductor [3, 10]: 40.43±2.23 μm
mean myofiber diameter, opponens [3, 10]: 43.25±4.26 μm
myofiber diameter vs control animals ([3]; right, nerve-repaired hand, opponens and abductor, 12 and 24 weeks (FIG. 3)): statistically significant increase
mean decrease in calpain activity (Calpain [4]; right abductor pollicis muscles of oral leupeptin-treated monkeys): 24%
mean decrease in calpain activity (Calpain [4]; right opponens pollicis muscles of oral leupeptin treated monkeys): 30%
muscle function tests vs start of trial (Duchenne patients; DMD children, at 6 months and one year): little decline in muscle strength
blood chemistries over the year (Duchenne patients; DMD children, oral leupeptin for one year): no abnormalities
CREATINE KINASE After 1 yr. (Duchenne patients; Duchenne patient, oral leupeptin 100 mg twice daily): 375 Units/100 ml
CREATINE KINASE After 1 yr. (Duchenne patients; Duchenne patients (one line per patient), oral leupeptin 50 mg twice daily): 2,500 Units/100 ml (2×) and 4,100 Units/100 ml and 2,700 Units/100 ml and 3,300 Units/100 ml and 3,500 Units/100 ml
tolerability / adverse effects (Duchenne patients; in vivo, po): well tolerated
% loss (muscle atrophy due to denervation) ([5]; 1.5 mg/kg injected 2x/day for seven days): 30.9 ± 4%
% loss (muscle atrophy due to denervation) ([5]; 15.0 mg/kg injected 2x/day for seven days): 2.6 ± 0.3%
health / toxic effect in denervation study ([5]; rats, seven days of injections): remained healthy without any apparent negative toxic effect

Reference: US20080039531A1, “Compositions, and kits comprising targeted aldehyde or acetal protease inhibitor compounds for treating muscle disorders” (priority 2005, published 2008)
